Results from patent US9108983B2, “Pyrrole compounds, a process for their preparation and pharmaceutical compositions containing them” (LES LABORATOIRES SERVIER, priority 2013, dated 2015).
Where a name gives a salt, the structure may show the parent alone.

Legend:
[1] = biological target: Bcl-2 protein (histag-Bcl-2, UniProtKB P10415) (Homo sapiens (Human), UniProt P10415); test: Inhibition of Bcl-2 by the fluorescence polarisation technique; assay type: binding; settings: incubation for 2 hours, read-out: IC50 (nM) Bcl-2 FP
Outline: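 In pH 7.4 buffer (Hepes 10 mM, NaCl 150 mM, Tween20 0.05%), test compounds at increasing concentrations competed with a fluorescein peptide (1.00×10^−8 M final) for histag-Bcl-2 (2.50×10^−8 M final). Readout was fluorescence polarisation after a 2 h incubation.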

[2] = system: RS4;11 leukaemia tumour line; test: In vitro cytotoxicity (Microculture Tetrazolium Assay); assay type: cell-based; settings: Homo sapiens, RS4-11, 48 h, RS4;11 cells, exposed for 48 hours, cell viability; read-out: IC50 (nM) MTT RS4;11
Method: The cytotoxicity studies were carried out on the RS4;11 leukaemia tumour line.
The cells are distributed onto microplates and exposed to the test compounds for 48 hours.
The cell viability is then quantified by a colorimetric assay, the Microculture Tetrazolium Assay (Cancer Res., 1987, 47, 939-942).

Sequence of Bcl-2 protein (P10415 whole entry): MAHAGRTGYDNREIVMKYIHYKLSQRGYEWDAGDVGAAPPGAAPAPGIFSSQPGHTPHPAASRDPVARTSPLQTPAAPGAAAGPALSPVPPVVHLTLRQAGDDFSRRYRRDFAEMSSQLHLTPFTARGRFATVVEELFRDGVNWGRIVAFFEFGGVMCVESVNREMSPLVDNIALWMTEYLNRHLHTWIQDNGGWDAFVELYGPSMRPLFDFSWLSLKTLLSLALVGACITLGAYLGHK

| Compound | IC50 [1] | IC50 [2] |
| --- | --- | --- |
| COc1cc(C(=O)N2Cc3ccccc3C[C@H]2CN2CCOCC2)c(-c2[nH]c(C)c(C(=O)N(c3ccc(O)cc3)c3cnn(C)c3)c2C)cc1F [Example 100, 5-(5-Fluoro-4-methoxy-2-{[(3S)-3-(morpholin-4-ylmethyl)-3,4-dihydroisoquinolin-2(1H)-yl]carbonyl}phenyl)-N-(4-hydroxyphenyl)-4,2-dimethyl-N-(1-methyl-1H-pyrazol-4-yl)-1H-pyrrole-3-carboxamide hydrochloride] | 22.9 nM | 193 nM |
| COc1cc(-c2cc(C(=O)N(c3ccc(O)cc3)c3cnn(C)c3)c(C)n2C)c(C(=O)N2Cc3ccccc3C[C@H]2CN2CCOCC2)cc1F [Example 101, 5-(4-Fluoro-5-methoxy-2-{[(3S)-3-(morpholin-4-ylmethyl)-3,4-dihydroisoquinolin-2(1H)-yl]carbonyl}phenyl)-N-(4-hydroxyphenyl)-1,2-dimethyl-N-(1-methyl-1H-pyrazol-4-yl)-1H-pyrrole-3-carboxamide hydrochloride] | 21.1 nM | 743 nM |
| Cc1c(C(=O)N(c2ccc(O)cc2)c2cnn(C)c2)cc(-c2cc(Cl)ccc2C(=O)N2Cc3ccccc3C[C@H]2CN2CCN3CCOC[C@@H]3C2)n1C [Example 115, 5-(5-Chloro-2-{[(3S)-3-[(9aS)-hexahydropyrazino[2,1-c][1,4]oxazin-8(1H)-ylmethyl]-3,4-dihydroisoquinolin-2(1H)-yl]carbonyl}phenyl)-N-(4-hydroxyphenyl)-1,2-dimethyl-N-(1-methyl-1H-pyrazol-4-yl)-1H-pyrrole-3-carboxamide dihydrochloride] | 3.6 nM | 18.3 nM |
| Cc1c(C(=O)N(c2ccc(O)cc2)c2cnn(C)c2)cc(-c2cc(Cl)ccc2C(=O)N2Cc3ccccc3C[C@H]2CN2CCN3CCOC[C@H]3C2)n1C [Example 116, 5-(5-Chloro-2-{[(3S)-3-[(9aR)-hexahydropyrazino[2,1-c][1,4]oxazin-8(1H)-ylmethyl]-3,4-dihydroisoquinolin-2(1H)-yl]carbonyl}phenyl)-N-(4-hydroxyphenyl)-1,2-dimethyl-N-(1-methyl-1H-pyrazol-4-yl)-1H-pyrrole-3-carboxamide dihydrochloride] | 3.4 nM | 47.8 nM |
| Cc1c(C(=O)N(c2ccc(O)cc2)c2cnn(C3CCOC3)c2)cc(-c2cc(Cl)ccc2C(=O)N2Cc3ccccc3C[C@H]2CN2CCOCC2)n1C (stereo partly drawn) [Example 127, 5-(5-Chloro-2-{[(3S)-3-(morpholin-4-ylmethyl)-3,4-dihydroisoquinolin-2(1H)-yl]carbonyl}phenyl)-N-(4-hydroxyphenyl)-1,2-dimethyl-N-[1-(tetrahydrofuran-3-yl)-1H-pyrazol-4-yl]-1H-pyrrole-3-carboxamide hydrochloride] | 5.3 nM | 111 nM |
| COc1cc(C(=O)N2Cc3ccccc3C[C@H]2CN2CCOCC2)c(-c2cc(C(=O)N(c3ccc(O)cc3)c3cnc4c(ccn4C)c3)c(C)n2C)cc1F [Example 209, 5-(5-Fluoro-4-methoxy-2-{[(3S)-3-(morpholin-4-ylmethyl)-3,4-dihydroisoquinolin-2(1H)-yl]carbonyl}phenyl)-N-(4-hydroxyphenyl)-1,2-dimethyl-N-(1-methyl-1H-pyrrolo[2,3-b]pyridin-5-yl)-1H-pyrrole-3-carboxamide hydrochloride] | 7.4 nM | 25.4 nM |
| Cc1c(C(=O)N(c2ccc(O)cc2)c2cnn(C3CC3)c2)cc(-c2cc(F)ccc2C(=O)N2Cc3ccccc3C[C@H]2CN2CCOCC2)n1C [Example 214, N-(1-Cyclopropyl-1H-pyrazol-4-yl)-5-(5-fluoro-2-{[(3S)-3-(morpholin-4-ylmethyl)-3,4-dihydroisoquinolin-2(1H)-yl]carbonyl}phenyl)-N-(4-hydroxyphenyl)-1,2-dimethyl-1H-pyrrole-3-carboxamide hydrochloride] | 6.3 nM | 236 nM |
| Cc1c(C(=O)N(c2ccncc2)c2ccc(O)cc2)cc(-c2cc(F)ccc2C(=O)N2Cc3ccccc3C[C@H]2CN2CCOCC2)n1C [Example 384, 5-(5-Fluoro-2-{[(3S)-3-(morpholin-4-ylmethyl)-3,4-dihydroisoquinolin-2(1H)-yl]carbonyl}phenyl)-N-(4-hydroxyphenyl)-1,2-dimethyl-N-(pyridin-4-yl)-1H-pyrrole-3-carboxamide hydrochloride] | 9.7 nM | 216 nM |

More lines, in order of falling IC50 [1], values ahead:

| IC50 [1] | Compound | IC50 [2] |
| --- | --- | --- |
| 91.5 nM | Cc1c(C(=O)N(c2ccc(O)cc2)c2cccc(C#N)n2)cc(-c2cc(Cl)ccc2C(=O)N2Cc3ccccc3C[C@H]2CN2CCOCC2)n1C [Example 109, 5-(5-Chloro-2-{[(3S)-3-(morpholin-4-ylmethyl)-3,4-dihydroisoquinolin-2(1H)-yl]carbonyl}phenyl)-N-(6-cyanopyridin-2-yl)-N-(4-hydroxyphenyl)-1,2-dimethyl-1H-pyrrole-3-carboxamide hydrochloride] | 930 nM |
| 18.1 nM | Cc1c(C(=O)N(c2ccccc2)c2cnc3c(c2)CCN3C)cc(-c2cc(Cl)ccc2C(=O)N2Cc3ccccc3C[C@H]2CN2CCOCC2)n1C [Example 129, 5-(5-Chloro-2-{[(3S)-3-(morpholin-4-ylmethyl)-3,4-dihydroisoquinolin-2(1H)-yl]carbonyl}phenyl)-1,2-dimethyl-N-(1-methyl-2,3-dihydro-1H-pyrrolo[2,3-b]-pyridin-5-yl)-N-phenyl-1H-pyrrole-3-carboxamide] | 275 nM |
| 14.8 nM | COCCc1c(C(=O)N(c2ccc(O)cc2)c2cnc3c(c2)CCN3C)cc(-c2cc3c(cc2C(=O)N2Cc4ccccc4C[C@H]2CN2CCOCC2)OCO3)n1C [Example 358, N-(4-Hydroxyphenyl)-2-(2-methoxyethyl)-1-methyl-N-(1-methyl-2,3-dihydro-1H-pyrrolo[2,3-b]pyridin-5-yl)-5-(6-{[(3S)-3-(morpholin-4-ylmethyl)-3,4-dihydroisoquinolin-2(1H)-yl]carbonyl}-1,3-benzodioxol-5-yl)-1H-pyrrole-3-carboxamide hydrochloride] | 165 nM |
| 8.5 nM | Cc1c(C(=O)N(c2ccc(O)cc2)c2cc(C#N)ccn2)cc(-c2cc(Cl)ccc2C(=O)N2Cc3ccccc3C[C@H]2CN2CCOCC2)n1C [Example 110, 5-(5-Chloro-2-{[(3S)-3-(morpholin-4-ylmethyl)-3,4-dihydroisoquinolin-2(1H)-yl]carbonyl}phenyl)-N-(4-cyanopyridin-2-yl)-N-(4-hydroxyphenyl)-1,2-dimethyl-1H-pyrrole-3-carboxamide hydrochloride] | 39.5 nM |
| 6.4 nM | COCCN(C)CCn1c(-c2cc3c(cc2C(=O)N2Cc4ccccc4C[C@H]2C)OCO3)cc(C(=O)N(c2ccc(O)cc2)c2cnn(C)c2)c1C [Example 99, N-(4-Hydroxyphenyl)-1-{2-[(2-methoxyethyl)(methyl)amino]ethyl}-2-methyl-5-(6-{[(3R)-3-methyl-3,4-dihydroisoquinolin-2(1H)-yl]carbonyl}-1,3-benzodioxol-5-yl)-N-(1-methyl-1H-pyrazol-4-yl)-1H-pyrrole-3-carboxamide hydrochloride] | 108 nM |
| 4.6 nM | Cc1c(C(=O)N(c2ccc(O)cc2)c2cnn(C)c2)cc(-c2cc(Cl)ccc2C(=O)N2Cc3ccccc3C[C@H]2CN2CC3(CCO3)C2)n1C [Example 207, 5-(5-Chloro-2-{[(3S)-3-(1-oxa-6-azaspiro[3.3]hept-6-ylmethyl)-3,4-dihydroisoquinolin-2(1H)-yl]carbonyl}phenyl)-N-(4-hydroxyphenyl)-1,2-dimethyl-N-(1-methyl-1H-pyrazol-4-yl)-1H-pyrrole-3-carboxamide] | 32.2 nM |
| 4.2 nM | Cc1c(C(=O)N(c2ccc(O)cc2)c2cnn(C3COC3)c2)cc(-c2cc(Cl)ccc2C(=O)N2Cc3ccccc3C[C@H]2CN2CCOCC2)n1C [Example 126, 5-(5-Chloro-2-{[(3S)-3-(morpholin-4-ylmethyl)-3,4-dihydroisoquinolin-2(1H)-yl]carbonyl}phenyl)-N-(4-hydroxyphenyl)-1,2-dimethyl-N-[1-(oxetan-3-yl) 1H-pyrazol-4-yl]-1H-pyrrole-3-carboxamide] | 49.2 nM |
| 3.9 nM | Cc1c(C(=O)N(c2ccc(O)cc2)c2cc(C#N)n(C)c2)cc(-c2cc(Cl)ccc2C(=O)N2Cc3ccccc3C[C@H]2CN2CCOCC2)n1C [Example 108, 5-(5-Chloro-2-{[(3S)-3-(morpholin-4-ylmethyl)-3,4-dihydroisoquinolin-2(1H)-yl]carbonyl}phenyl)-N-(5-cyano-1-methyl-1H-pyrrol-3-yl)-N-(4-hydroxyphenyl)-1,2-dimethyl-1H-pyrrole-3-carboxamide hydrochloride] | 15.4 nM |
| 3.4 nM | Cc1c(C(=O)N(c2ccc(O)cc2)c2cnn(C3CC3)c2)cc(-c2cc(Cl)ccc2C(=O)N2Cc3ccccc3C[C@H]2CN2CCOCC2)n1C [Example 122, 5-(5-Chloro-2-{[(3S)-3-(morpholin-4-ylmethyl)-3,4-dihydroisoquinolin-2(1H)-yl]carbonyl}phenyl)-N-(1-cyclopropyl-1H-pyrazol-4-yl)-N-(4-hydroxyphenyl)-1,2-dimethyl-1H-pyrrole-3-carboxamide] | 82.4 nM |
| 2 nM | Cc1c(C(=O)N(c2ccc(O)cc2)c2cnc3c(ccn3C)c2)cc(-c2cc(Cl)ccc2C(=O)N2Cc3ccccc3C[C@H]2CN2CCN(C)CC2)n1C [Example 102, 5-(5-Chloro-2-{[(3S)-3-[(4-methylpiperazin-1-yl)methyl]-3,4-dihydroisoquinolin-2(1H)-yl]carbonyl}phenyl)-N-(4-hydroxyphenyl)-1,2-dimethyl-N-(1-methyl-1H-pyrrolo[2,3-b]pyridin-5-yl)-1H-pyrrole-3-carboxamide trihydrochloride] | 6.51 nM |
